Assay results reported in patent publication US11253498B2, “Pharmaceutical composition for treatment of bone-related disease” (Nexyon Biotech Co., Ltd., priority 2017, dated 2022).

Tests used:
preosteoblast cells [1] = experiment: Osteoblast mineralized nodules, alizarin red staining (Example 1-2); format: cell-based, mice; conditions: vs negative control (0 μM); for amount of pigments colored in the nodules (differentiation of preosteoblast cells): alizarin red staining, 21 days, 0 to 50 μM, FIG. 1; for effect on the differentiation into osteoblasts (quantified, absorbance 570 nm): concentration series, FIG. 2 and FIG. 3
Experimental: In order to isolate preosteoblast cells, the calvarium was removed from 1- to 3-day-old mice, and then preosteoblast cells were obtained via a process in which the calvarium was subjected to treatment with 1 mg/ml collagenase and 2 mg/ml dispase.
Here, the medium for differentiation induction was replaced with fresh medium at 2- to 3-day intervals, and differentiation induction was performed for a total of 21 days. In order to identify the differentiation into osteoblasts, alizarin red staining was performed. Differentiation-induced cells were fixed by being incubated with 10% neutral formalin at 4° C. for 20 minutes, and then stained by being incubated with 1.36% alizarin red solution (pH 4.1 to 4.3) for 40 minutes. The results are illustrated in FIG. 1.
The results obtained by performing quantification with tauroursodeoxycholic acid, deoxycholic acid, or taurocholic acid are illustrated in FIG. 3.

preosteoblast cells [2] = experiment: Differentiation into osteoblasts, alizarin red S staining, cholesterol sulphate with or without Formula 2 (Example 2-2); format: cell-based, mice; conditions: FIG. 8
Experimental: The calvarium was removed from 1- to 3-day-old mice, and then subjected to enzymatic treatment with 1 mg/ml collagenase and 2 mg/ml dispase, to obtain preosteoblast cells. […] Then, differentiation into osteoblasts was induced. Replacement of the medium for differentiation was performed at 2- to 3-day intervals and differentiation was induced for a total of 14 to 21 days. Alizarin red S staining was used to evaluate the differentiation into osteoblasts, thereby quantitatively evaluate the degree of mineralized nodule production. The differentiated cells were fixed in 10% neutral formalin at 4° C. for 20 minutes, and then stained with 1.36% alizarin red solution (pH 4.1 to 4.3) for 40 minutes. The stained pattern was photographed or scanned. […] The degree of differentiation into osteoblasts is illustrated in FIG. 8.

[3] = system: ovary-extracted mouse model; experiment: Drug administration in ovary-extracted mouse model, femur micro-CT (Example 2-1); format: in vivo, C57BL/6 female mice; conditions: 5 mg/kg oral, once a day, five days a week, 4 weeks; vs OVX group receiving vehicle only; FIG. 7
Excerpt: Twenty-four 8-week-old C57BL/6 female mice were randomly divided into three groups, that is, control group (sham), ovary-extracted group (OVX), and OVX+Formula 2 group obtained by administering the compound of Formula 2 to the ovary-extracted group, each group consisting of 8 mice. All three groups were anesthetized using zoletil and rompun. Then, the OVX and OVX+Formula 2 groups were subjected to ovary extraction, and then sutured. The control group was subjected to ovary exposure, and then sutured without ovarian removal. Osteoporosis was induced for 4 weeks.
Starting from 4 weeks after ovarian extraction, on five days a week and once a day, the control group and the OVX group orally received 200 μl of vehicle (tetrahydrofuran:PEG-400:water=1:6:3 in volume), and the OVX+Formula 2 group orally received 200 μl obtained by mixing 5 mg/kg of compound of Formula 2 with a vehicle.
After oral administration for 4 weeks, all mice were sacrificed and the femur was extracted therefrom. The extracted femur was fixed in 10% neutral formalin. Photographs were taken at 7.1 μm voxel size using Skyscan 1173 micro-CT machine, and then bone density was analyzed by CTAn program. The results are illustrated in FIG. 7.

Row | SMILES | amount of pigments colored in the nodules (differentiation of preosteoblast cells) (preosteoblast cells [1]) | effect on the differentiation into osteoblasts (quantified, absorbance 570 nm) (preosteoblast cells [1]) | further results
1 | C[C@H](CCC(=O)O)[C@H]1CC[C@H]2[C@@H]3CC[C@@H]4C[C@H](O)CC[C@]4(C)[C@H]3C[C@H](O)[C@]12C [deoxycholic acid] | no effect | – | –
2 | NS(=O)(=O)Oc1ccc2c3c(c(=O)oc2c1)CCCCC3 [Formula 2, 6-oxo-6,7,8,9,10,11-hexahydrocyclohepta[c]chromen-3-yl sulfamate] | – | – | differentiation into osteoblasts (preosteoblast cells [2]; 5 μM compound of Formula 2 alone): does not increase; differentiation into osteoblasts (preosteoblast cells [2]; 5 μM compound of Formula 2 in combination with 0 to 50 μM cholesterol sulphate): further enhances an effect of cholesterol sulphate; increase in the volume of trabecular bone [3]: 90%
3 | C[C@H](CCC(=O)NCCS(=O)(=O)O)[C@H]1CC[C@H]2[C@@H]3[C@@H](O)C[C@@H]4C[C@H](O)CC[C@]4(C)[C@H]3CC[C@]12C [tauroursodeoxycholic acid] | no effect | no significant difference | –
4 | C[C@H](CCC(=O)NCCS(=O)(=O)O)[C@H]1CC[C@H]2[C@@H]3[C@H](O)C[C@@H]4C[C@H](O)CC[C@]4(C)[C@H]3C[C@H](O)[C@]12C [taurocholic acid] | no effect | no significant difference | –
5 | CC(C)CCC[C@@H](C)[C@H]1CC[C@H]2[C@@H]3CC=C4C[C@@H](OS(=O)(=O)O)CC[C@]4(C)[C@H]3CC[C@]12C [Formula 1, [(3S,8S,9S,10R,13R,14S,17R)-10,13-dimethyl-17-[(2R)-6-methylheptan-2-yl]-2,3,4,7,8,9,11,12,14,15,16,17-dodecahydro-1H-cyclopenta[a]phenanthren-3-yl] hydrogen sulphate] | – | – | differentiation into osteoblasts (preosteoblast cells [2]; 0 to 50 μM cholesterol sulphate alone): increases the differentiation into osteoblasts in a dose-dependent manner
